Tests used:
[1] = test system: S. aureus (ATCC No. 6538); test: MIC, broth microdilution; assay type: cell-based, Staphylococcus aureus; conditions: Gemini-surfactant series S; 18 hours, 37° C.
Protocol: (§1) Bacterial and fungal samples were inoculated according to ATCC's requirement. Briefly, bacteria and fungi were grown in Mueller Hinton Broth (MHB) at 37° C. and room temperature, respectively overnight to allow the microbes to enter the log growth phase with constant 100 rpm shaking. Minimum inhibitory concentration (MIC) of the polymers was determined using the broth microdilution method. 100 μL of 20% v/v water-containing broth with various polymer or Gemini-surfactant concentrations was first added into each well of a 96-well tissue culture plate. The inoculated overnight microbe solution was first diluted to an optical density (O.D.) reading of 0.07 using a microplate reader (TECAN, Switzerland). This will correspond to 3×10^8 CFU/mL based on the McFarland 1 standard solution (CFU=colony forming units). The microbe solution was further diluted 1000 times to achieve a final 3×10^5 CFU/mL. To each well, an equal volume of diluted microbes solution was added and incubated at 37° C. for 18 hours for bacteria samples and at room temperature for 42 hours for fungi samples. There were 6 replicates for each concentration tested, with negative control being microbes added into broth containing 20% v/v deionized water. MIC was taken as the lowest concentration at which there was no observable microbe growth when measured by the microplate reader.

[2] = test system: C. albicans (ATCC No 10231); test: MIC, broth microdilution; assay type: cell-based, Candida albicans; conditions: Gemini-surfactant series S; 42 hours, room temperature
Protocol: as §1

E. coli (ATCC No. 25922) = test: MIC, broth microdilution; assay type: cell-based, Escherichia coli; conditions: Gemini-surfactant series S; 18 hours, 37° C.
Protocol: as §1

[3] = test system: P. aeruginosa (ATCC No. 9027); test: MIC, broth microdilution; assay type: cell-based, Pseudomonas aeruginosa; conditions: Gemini-surfactant series S; 18 hours, 37° C.
Protocol: as §1

[4] = test system: rat red blood cells (rRBCs); test: Hemolysis assay; assay type: cell-based; conditions: Gemini-surfactant series S; 1 hour, 37° C.
Protocol: Freshly obtained rat red blood cells (rRBC) from the Animal Handling Unit of Biomedical Research Center (Singapore) was used to test the hemolytic activity of the polymers and Gemini-surfactants. The rRBC was diluted to 4% v/v with phosphate-buffered saline (PBS) and added to an equal volume of 0.2% v/v Triton-X solution. A microplate reader was used to measure the optical density (O.D.) reading to make sure the value is between 0.5 and 0.6. An equal volume of different polymer or Gemini-surfactant concentrations was added to the diluted blood and incubated for 1 hour at 37° C. The samples were centrifuged at 1000 g at 4° C. for 5 minutes and 100 μL of the supernatant was collected and transferred to a 96-well tissue culture plate. There were 4 replicates for each concentration. Haemoglobin release was measured using the microplate reader at 576 nm. rRBCs treated with PBS were used as the […] control, while those treated with 0.2% v/v Triton-X was used as the […] control.
Percentage of hemolysis was calculated as follows: Hemolysis (%)═[(O.D.576 nm of the treated sample−O.D.576 nm of negative control)/(O.D.576 nm of positive control−O.D.576 nm of negative control)]×100%
HC50 was taken as the polymer concentration at which the polymer causes 50% hemolysis.

Q: Which “MIC SA” value [1] does the source give for `CCCCCCCC[N+](C)(C)Cc1ccc(C(=O)NCCNC(=O)c2ccc(C[N+](C)(C)CCCCCCCC)cc2)cc1.[Cl-].[Cl-]` [S-1f] here?
A: 31 ppm

Q: What about the “MIC CA” value [2] of the same compound?
A: 125 ppm

Q: What about the “MIC EC” value (E. coli (ATCC No. 25922)) of the same compound?
A: 250 ppm

Q: And the “MIC PA” value [3]?
A: >500 ppm

Q: What about the “Hemolysis, HC50” value [4] of the same compound?
A: >2000 ppm

Q: Which results are given for `CCCCCCCCCCCC[N+](C)(C)Cc1ccc(C(=O)NCCNC(=O)c2ccc(C[N+](C)(C)CCCCCCCCCCCC)cc2)cc1.[Cl-].[Cl-]` [S-1g]?
A: MIC SA [1]: 1 ppm; MIC CA [2]: 2 ppm; MIC EC (E. coli (ATCC No. 25922)): 2 ppm; MIC PA [3]: 16 ppm; Hemolysis, HC50 [4]: 125-250 ppm

Q: `CCCCCCCCCCCC[N+](C)(C)Cc1ccc(C(=O)NCCNC(=O)c2ccc(C[N+](C)(C)CCCCCCCCCCCC)cc2)cc1.[Cl-].[Cl-]` [S-1h] was tested. Which “MIC SA” value [1] did it give?
A: 16 ppm

Q: And the “MIC CA” value [2]?
A: 2 ppm

Q: And the “MIC EC” value (E. coli (ATCC No. 25922))?
A: 8 ppm

Q: And the “MIC PA” value [3]?
A: 31 ppm

Q: And the “Hemolysis, HC50” value [4]?
A: 125-250 ppm

Q: How did the “MIC SA” value [1] turn out when `CCCCCCCC[N+](C)(C)Cc1ccc(C(=O)NCCCCCCNC(=O)c2ccc(C[N+](C)(C)CCCCCCCC)cc2)cc1.[Cl-].[Cl-]` [S-3f] was run?
A: 4 ppm

Q: What about the “MIC CA” value [2] of the same compound?
A: 8 ppm

Q: What about the “MIC EC” value (E. coli (ATCC No. 25922)) of the same compound?
A: 16 ppm

Q: And the “MIC PA” value [3]?
A: 500 ppm

Q: What about the “Hemolysis, HC50” value [4] of the same compound?
A: 500-1000 ppm

Q: How did the “MIC SA” value [1] turn out when `CCCCCCCCCCCC[N+](C)(C)Cc1ccc(C(=O)NCCCCCCNC(=O)c2ccc(C[N+](C)(C)CCCCCCCCCCCC)cc2)cc1.[Cl-].[Cl-]` [S-3h] was run?
A: 4 ppm

Q: And the “MIC CA” value [2]?
A: 2 ppm

Q: What about the “MIC EC” value (E. coli (ATCC No. 25922)) of the same compound?
A: 16 ppm

Q: And the “MIC PA” value [3]?
A: 16 ppm

Q: And the “Hemolysis, HC50” value [4]?
A: 125-250 ppm

Q: With `CCCCCCCC[N+](C)(C)Cc1ccc(C(=O)NCc2cccc(CNC(=O)c3ccc(C[N+](C)(C)CCCCCCCC)cc3)c2)cc1.[Cl-].[Cl-]` [S-4f] as the compound, how does the “MIC SA” value [1] read?
A: 2 ppm

Q: What about the “MIC CA” value [2] of the same compound?
A: 125 ppm

Q: What about the “MIC EC” value (E. coli (ATCC No. 25922)) of the same compound?
A: 8 ppm

Q: What about the “MIC PA” value [3] of the same compound?
A: 250 ppm

Q: What about the “Hemolysis, HC50” value [4] of the same compound?
A: 250-500 ppm

Q: `CCCCCCCCCC[N+](C)(C)Cc1ccc(C(=O)NCc2cccc(CNC(=O)c3ccc(C[N+](C)(C)CCCCCCCCCC)cc3)c2)cc1.[Cl-].[Cl-]` [S-4g] was tested. Which “MIC SA” value [1] did it give?
A: 1 ppm

Q: What about the “MIC CA” value [2] of the same compound?
A: 1 ppm

Q: What about the “MIC EC” value (E. coli (ATCC No. 25922)) of the same compound?
A: 1 ppm

Q: And the “MIC PA” value [3]?
A: 8 ppm

Q: What about the “Hemolysis, HC50” value [4] of the same compound?
A: 63-125 ppm

Q: With `CCCCCCCCCCCC[N+](C)(C)Cc1ccc(C(=O)NCc2cccc(CNC(=O)c3ccc(C[N+](C)(C)CCCCCCCCCCCC)cc3)c2)cc1.[Cl-].[Cl-]` [S-4h] as the compound, how does the “MIC SA” value [1] read?
A: 8 ppm

Q: What about the “MIC CA” value [2] of the same compound?
A: 2 ppm

Q: What about the “MIC EC” value (E. coli (ATCC No. 25922)) of the same compound?
A: 8 ppm

Q: What about the “MIC PA” value [3] of the same compound?
A: 31 ppm

Q: What about the “Hemolysis, HC50” value [4] of the same compound?
A: 63-125 ppm

Q: With `C=CC[N+](C)(C)Cc1ccc(C(=O)NCCOCCOCCNC(=O)c2ccc(C[N+](C)(C)CC=C)cc2)cc1.[Cl-].[Cl-]` [S-5a] as the compound, how does the “MIC SA” value [1] read?
A: >500 ppm

Q: And the “MIC CA” value [2]?
A: >500 ppm

Q: What about the “MIC EC” value (E. coli (ATCC No. 25922)) of the same compound?
A: >500 ppm

Q: What about the “MIC PA” value [3] of the same compound?
A: >500 ppm

Q: And the “Hemolysis, HC50” value [4]?
A: >2000 ppm

Q: `C=C(C)C(=O)OCC[N+](C)(C)Cc1ccc(C(=O)NCCOCCOCCNC(=O)c2ccc(C[N+](C)(C)CCOC(=O)C(=C)C)cc2)cc1.[Cl-].[Cl-]` [S-5b] was tested. Which “MIC SA” value [1] did it give?
A: >500 ppm

Q: What about the “MIC CA” value [2] of the same compound?
A: >500 ppm

Q: And the “MIC EC” value (E. coli (ATCC No. 25922))?
A: >500 ppm

Q: And the “MIC PA” value [3]?
A: >500 ppm

Q: What about the “Hemolysis, HC50” value [4] of the same compound?
A: >2000 ppm

Q: Which “MIC SA” value [1] does the source give for `C[N+](C)(Cc1ccc(C(=O)NCCOCCOCCNC(=O)c2ccc(C[N+](C)(C)C3CCCCC3)cc2)cc1)C1CCCCC1.[Cl-].[Cl-]` [S-5c] here?
A: >500 ppm

Q: What about the “MIC CA” value [2] of the same compound?
A: >500 ppm

Q: And the “MIC EC” value (E. coli (ATCC No. 25922))?
A: >500 ppm

Q: What about the “MIC PA” value [3] of the same compound?
A: >500 ppm

Q: And the “Hemolysis, HC50” value [4]?
A: >2000 ppm

Q: How did the “MIC SA” value [1] turn out when `C[N+](C)(Cc1ccccc1)Cc1ccc(C(=O)NCCOCCOCCNC(=O)c2ccc(C[N+](C)(C)Cc3ccccc3)cc2)cc1.[Cl-].[Cl-]` [S-5d] was run?
A: >500 ppm

Q: What about the “MIC CA” value [2] of the same compound?
A: >500 ppm

Q: And the “MIC EC” value (E. coli (ATCC No. 25922))?
A: >500 ppm

Q: What about the “MIC PA” value [3] of the same compound?
A: >500 ppm

Q: What about the “Hemolysis, HC50” value [4] of the same compound?
A: >2000 ppm

Q: `CCCC[N+](C)(C)Cc1ccc(C(=O)NCCOCCOCCNC(=O)c2ccc(C[N+](C)(C)CCCC)cc2)cc1.[Cl-].[Cl-]` [S-5e] was tested. Which “MIC SA” value [1] did it give?
A: >500 ppm

Q: And the “MIC CA” value [2]?
A: >500 ppm

Q: What about the “MIC EC” value (E. coli (ATCC No. 25922)) of the same compound?
A: >500 ppm

Q: And the “MIC PA” value [3]?
A: >500 ppm

Q: And the “Hemolysis, HC50” value [4]?
A: >2000 ppm
